Laboratory results published in article PMC5317004 (Scientific Reports, 2017).
pIC50, pKi: −log10 of the molar value.

System: chimeric α7-GluClβR
Assay: IVM pre-application before ACh, inhibition of ACh-elicited currents (whole-cell patch clamp)
Format: cell-based, chick nAChR α7 / C. elegans GluClβ
Procedure: Data were extracted from experiments performed as in panel A. Since the currents could not be recovered following an exposure to IVM, each cell was exposed only to one concentration of IVM. […] The curve was fitted to the averaged data points with a non-linear regression using the Hill equation 2 (Eq. 2; r^2 = 0.996). Error bars correspond to SEM. Total of 41 cells were used to obtain the averaged points. Recordings were performed at −60 mV.
Since the ACh-evoked response could not be recovered after exposure of the cell to IVM, we had to perform the above application protocol in different cells for each IVM concentration separately. By that, we obtained the inhibition graph shown in the inset of Fig. 3.
In the case of inhibition of the current response, curves were fitted to the data points by a nonlinear regression using the Hill equation 2, […]
Supplementary Information […]
Supplementary Materials and Methods […]
DNA construct and preparation of cells for electrophysiological experiments The cDNA encoding the α7-GluClβ chimeric subunit was generated as described previously3, and was cloned into a pcDNA3.1 vector.
Chinese hamster ovary cells (CHO-K1, ATCC via Biological Industries Israel, Beit Haemek Ltd.) were cultured as performed previously2 in Dulbecco 's Modified E agle Med iu m (DMEM) containing 10% fetal calf serum (Biological Industries Israel Beit Haemek Ltd.), 2 mM glutamax, 100 Units/ml penicillin G and 100 μg/ml streptomycin, and grown in 5% CO2 at 37°C under 90-95% hu midity . CHO cells were seeded on glass coverslips (13-mm diameter) placed in a 24-multiwell plate. For the expression of the α7-GluClβR, cells were transiently transfected with the pcDNA3.1 plasmid containing the receptor’s ORF (200-600 ng per well) using transit-LT1 transfection reagent (Mirus, USA), according to the manufacturer’s protocol. pIRES-CD8 plas mid (200 ng per well) was also added to enable visualization of the ex pressing cells by beads coated with anti-CD8 antibodies (Invitrogen). […]
Reagent (Roche Life Science). Recordings were performed 48-72 hours following transfection.
Whole-cell patch clamp recordings
Recordings were performed in the aforementioned CHO cells, as previously described1,2. Whole-cell patch clamp experiments were performed with normal external solution (NES) contained (in millimolar): 140 NaCl, 2.8 KCl, 2 CaCl2, 2 MgCl2, 10 glucose and 10 HEPES, adjusted to pH 7.35 with NaOH (310 mOsM). The pipette solution contained […]
(in millimolar): 130 KCl, 4 MgCl2, 4 Na2ATP, 1 EGTA and 10 HEPES, adjusted to pH 7.35 with KOH (290 mOsM). The osmolarity of these solutions was maintained by adding sucrose.
The electrode resistance was 6-10 MΩ when filled with the pipette solution. External solutions were applied onto the cell by using the VC-77SP fast-step system (Warner Instruments, CT, USA) combined with N2 pressure of 3-4 psi to produce laminar flow of the external solution onto the patched cell. All measurements were performed at 25 °C. The currents w ere measured with an Axopatch 200B patch-clamp amplifier (Molecular Devices, Sunnyvale, CA) and a Digidata 1440A interface (Molecular Devices). Acquisition of recording data was performed at 2.5 kHz and recordings were low-pass filtered at 1 kHz, through a four-pole Bessel filter.
The pClamp 10 software (Molecular Devices) was used for data acquisition.
To determine the chloride conductance and the reversal potential during current decline, the following procedure was employed. […]

In the case of `CC[C@H](C)[C@H]1O[C@]2(CC[C@@H]1C)C[C@@H]1C[C@@H](C/C=C(\C)[C@@H](O[C@H]3C[C@H](OC)[C@@H](O[C@H]4C[C@H](OC)[C@@H](O)[C@H](C)O4)[C@H](C)O3)[C@@H](C)/C=C/C=C3\CO[C@@H]4[C@H](O)C(C)=C[C@@H](C(=O)O1)[C@]34O)O2` [IVM, Ivermectin], the “ACh-elicited response after IVM pre-application, percent IP3/IP2” value (5 μM IVM for 10 sec, then 50 μM ACh 0.5 sec, relative to response after DMSO pre-application, N = 8) was 16 ± 5.2%, the “ACh-elicited response after IVM and long-term wash, percent IP4/IP2” value (5 μM IVM for 10 sec, wash > 2 min, 50 μM ACh, N = 5) was 4.4 ± 1.3% and the “Hill coefficient (IVM inhibition curve)” value (IVM applied prior to 50 μM ACh) was about 3. For the same molecule, the pIC50 (IVM applied prior to 50 μM ACh, −60 mV, 41 cells) was 6.81 and the pKi (IVM applied prior to activation by ACh, IC50 taken as Ki for non-competitive inhibition, read-out: inhibition constant (Ki)) was 6.81.
